In ChEMBL document CHEMBL1134984, “Anticancer activity for 4,4'-dihydroxybenzophenone-2,4-dinitrophenylhydrazone (A-007) analogues and their abilities to interact with lymphoendothelial cell surface markers” (Bioorg Med Chem Lett, 2002):
≈ marks a conversion by molar mass, not a printed value. Calls of active or inactive are those of the source. The calls are words filed in the database; no cut-off is given here.

Assays:
[1] = target: T1, Receptor-type tyrosine-protein phosphatase C (Homo sapiens) (UniProt P08575); experiment: Binding Intensity was determined against CD45+ HH-leukemic cells at 5 ug/mL; No change; format: cell-based
T1 sequence (whole entry): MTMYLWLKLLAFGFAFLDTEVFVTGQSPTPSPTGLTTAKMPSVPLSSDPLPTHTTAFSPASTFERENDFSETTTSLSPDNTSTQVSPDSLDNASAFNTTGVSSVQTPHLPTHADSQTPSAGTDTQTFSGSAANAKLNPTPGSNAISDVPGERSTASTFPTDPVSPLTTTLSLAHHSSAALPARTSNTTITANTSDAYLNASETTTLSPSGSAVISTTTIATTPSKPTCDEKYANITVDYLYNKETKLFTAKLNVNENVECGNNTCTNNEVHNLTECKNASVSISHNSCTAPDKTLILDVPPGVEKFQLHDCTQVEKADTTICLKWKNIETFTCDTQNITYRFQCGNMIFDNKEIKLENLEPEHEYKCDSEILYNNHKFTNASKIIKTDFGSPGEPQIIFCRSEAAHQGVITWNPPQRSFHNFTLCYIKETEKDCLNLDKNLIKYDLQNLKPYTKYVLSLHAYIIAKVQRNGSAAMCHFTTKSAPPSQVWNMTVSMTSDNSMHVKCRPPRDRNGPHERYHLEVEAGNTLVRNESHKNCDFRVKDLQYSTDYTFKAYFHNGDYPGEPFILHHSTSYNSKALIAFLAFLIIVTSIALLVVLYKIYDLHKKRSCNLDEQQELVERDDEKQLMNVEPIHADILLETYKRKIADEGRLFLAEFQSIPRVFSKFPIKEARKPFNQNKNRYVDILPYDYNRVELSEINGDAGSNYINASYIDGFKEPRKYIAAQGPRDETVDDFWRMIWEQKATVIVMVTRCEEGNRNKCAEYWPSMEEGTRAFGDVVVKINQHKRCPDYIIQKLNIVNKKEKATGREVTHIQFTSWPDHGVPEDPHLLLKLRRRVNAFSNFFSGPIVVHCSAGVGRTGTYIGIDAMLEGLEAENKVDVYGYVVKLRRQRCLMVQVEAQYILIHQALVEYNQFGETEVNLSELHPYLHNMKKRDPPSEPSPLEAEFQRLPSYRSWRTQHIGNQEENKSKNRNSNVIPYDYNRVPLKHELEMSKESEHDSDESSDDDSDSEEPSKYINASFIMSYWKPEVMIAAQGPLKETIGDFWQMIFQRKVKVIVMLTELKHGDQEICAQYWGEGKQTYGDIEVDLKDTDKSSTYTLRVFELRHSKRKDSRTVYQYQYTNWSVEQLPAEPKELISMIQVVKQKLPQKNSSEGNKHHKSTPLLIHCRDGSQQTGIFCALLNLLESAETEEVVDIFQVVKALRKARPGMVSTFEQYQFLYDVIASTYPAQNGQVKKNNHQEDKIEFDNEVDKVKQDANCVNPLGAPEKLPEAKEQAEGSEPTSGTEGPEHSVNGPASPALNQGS

[2] = system: T-cell; experiment: Cytotoxicity in HH T-lymphocytic leukemia cells; format: functional, cell-based; conditions: Homo sapiens
[3] = target: T-cell surface glycoprotein CD4 (Homo sapiens) (UniProt P01730); experiment: Binding Intensity against CD4+ HH-leukemic cells at 5 ug/mL.; format: cell-based
[4] = system: HH-leukemic; experiment: Binding Intensity against CD11C+ HH-leukemic cells at 5 ug/mL.; format: cell-based; conditions: Homo sapiens
[5] = system: HH-leukemic; experiment: Binding Intensity against CD11C+ HH-leukemic cells at 5 ug/mL; format: cell-based; conditions: Homo sapiens
[6] = target: T-cell surface glycoprotein CD4 (Homo sapiens) (UniProt P01730); experiment: Binding Intensity against CD4+ HH-leukemic cells at 5 ug/mL; format: cell-based
[7] = target: T1, Receptor-type tyrosine-protein phosphatase C (Homo sapiens); experiment: Binding Intensity against CD45+ HH-leukemic cells at 5 ug/mL; format: cell-based

With `O=[N+]([O-])c1ccc(N/N=C/c2ccc(O)cc2)cc1` as the molecule, how does the Binding intensity [1] read?
Its Binding intensity is “inactive”.

What about the IC50 [2] of the same molecule?
Its IC50 is 5 µg/mL (≈ 19.4 µM).

Which Binding intensity [1] does the source give for `O=[N+]([O-])c1cc([N+](=O)[O-])c(NN=C(c2ccc(O)cc2)c2ccc(O)cc2)cc1Cl` here?
Its Binding intensity is “inactive”.

What about the Binding intensity [3] of the same molecule?
The Binding intensity was “No change”.

And the Binding intensity [4]?
Its Binding intensity is “No change”.

And the IC50 [2]?
The IC50 was 1.5 µg/mL (≈ 3.5 µM).

Which Binding intensity [1] does the source give for `O=C1NC(=O)C(/C(=N\Nc2ccc([N+](=O)[O-])cc2[N+](=O)[O-])c2ccccc2)C(=O)N1` here?
Its Binding intensity is “inactive”.

And the Binding intensity [3]?
Its Binding intensity is “No change”.

What about the Binding intensity [4] of the same molecule?
Its Binding intensity is “No change”.

And the IC50 [2]?
Its IC50 is over 10 µg/mL.

Which Binding intensity [1] does the source give for `CN1C(=O)C(C2(C3C(=O)N(C)C(=O)N(C)C3=O)C(=O)Nc3ccccc32)C(=O)N(C)C1=O` here?
Its Binding intensity is “inactive”.

And the Binding intensity [3]?
The Binding intensity was “No change”.

And the Binding intensity [4]?
Its Binding intensity is “No change”.

What about the IC50 [2] of the same molecule?
The IC50 was over 10 µg/mL.

What does the source list for `CS(=O)(=O)Oc1ccc(C(=NNc2ccc([N+](=O)[O-])cc2[N+](=O)[O-])c2ccc(OS(C)(=O)=O)cc2)cc1`?
Binding intensity [1]: inactive; Binding intensity [3]: No change; Binding intensity [4]: No change; IC50 [2]: > 10 µg/mL

`O=[N+]([O-])c1ccc(NN=C(c2ccc(NS(=O)(=O)c3ccccc3)cc2)c2ccc(NS(=O)(=O)c3ccccc3)cc2)c([N+](=O)[O-])c1` was tested. Which IC50 [2] did it give?
The IC50 was 6 µg/mL (≈ 8.92 µM).

Which results are given for `COc1ccc(C(=NNc2ccc([N+](=O)[O-])cc2[N+](=O)[O-])c2ccc(OC)cc2)cc1`?
Binding intensity [1]: inactive; Binding intensity [5]: 25%; IC50 [2]: > 10 µg/mL; Binding intensity [6]: 25%

What does the source list for `C/C(=N/Nc1ccc([N+](=O)[O-])cc1)C1C(=O)NC(=O)NC1=O`?
Binding intensity [1]: inactive; Binding intensity [3]: No change; Binding intensity [4]: No change; IC50 [2]: > 10 µg/mL

For `O=C1NC(=O)C(C(c2cccnc2)C2C(=O)NC(=O)NC2=O)C(=O)N1`, which IC50 [2] is on record?
Its IC50 is over 10 µg/mL.

Which results are given for `O=C(O)CCC/N=C(\c1ccccc1)C1C(=O)NC(=O)NC1=O`?
Binding intensity [1]: inactive; Binding intensity [3]: No change; Binding intensity [4]: No change; IC50 [2]: > 10 µg/mL

Which Binding intensity [1] does the source give for `O=C1NC(=O)C(C2(C3C(=O)NC(=O)NC3=O)C(=O)Nc3ccccc32)C(=O)N1` here?
Its Binding intensity is “inactive”.

And the Binding intensity [3]?
The Binding intensity was “No change”.

What about the Binding intensity [4] of the same molecule?
Its Binding intensity is “No change”.

And the IC50 [2]?
The IC50 was over 10 µg/mL.

What does the source list for `O=C(O)CCC/N=C/C1C(=O)NC(=O)NC1=O`?
Binding intensity [3]: No change; Binding intensity [7]: 25%; Binding intensity [4]: No change; IC50 [2]: 3.5 µg/mL (≈ 14.5 µM)

For `O=[N+]([O-])c1ccccc1NN=C(c1ccc(O)cc1)c1ccc(O)cc1`, which Binding intensity [1] is on record?
The Binding intensity was “inactive”.

What about the Binding intensity [3] of the same molecule?
The Binding intensity was “No change”.

And the Binding intensity [4]?
The Binding intensity was “No change”.

And the IC50 [2]?
The IC50 was 2.7 µg/mL (≈ 7.73 µM).

What does the source list for `Cl.O=C1N=C2C(=Nc3ccccc32)N1c1ccc(O)cc1`?
Binding intensity [1]: inactive; Binding intensity [3]: No change; Binding intensity [4]: No change; IC50 [2]: > 10 µg/mL

Which Binding intensity [1] does the source give for `O=[N+]([O-])c1ccc(NN=C(c2ccccc2)c2ccccc2)c([N+](=O)[O-])c1` here?
Its Binding intensity is “inactive”.

What about the Binding intensity [3] of the same molecule?
Its Binding intensity is “No change”.

And the Binding intensity [4]?
The Binding intensity was “No change”.

And the IC50 [2]?
The IC50 was over 10 µg/mL.

Which results are given for `O=[N+]([O-])c1ccc(NN=C(c2ccc(O)cc2)c2ccc(O)cc2)c([N+](=O)[O-])c1` [SIVIFENE]?
Binding intensity [3]: No change; Binding intensity [7]: 50%; Binding intensity [5]: 20%; IC50 [2]: 3.2 µg/mL (≈ 8.11 µM)

With `O=C1NC(=O)C(/C(=N\Nc2ccc([N+](=O)[O-])cc2[N+](=O)[O-])c2ccc(O)cc2)C(=O)N1` as the molecule, how does the Binding intensity [1] read?
The Binding intensity was “inactive”.

What about the Binding intensity [3] of the same molecule?
Its Binding intensity is “No change”.

What about the Binding intensity [4] of the same molecule?
The Binding intensity was “No change”.

What about the IC50 [2] of the same molecule?
Its IC50 is over 10 µg/mL.

How did the Binding intensity [1] turn out when `O=C1NC(=O)C(/C=N\Nc2ccc([N+](=O)[O-])cc2)C(=O)N1` was run?
The Binding intensity was “inactive”.

And the Binding intensity [3]?
Its Binding intensity is “No change”.

What about the Binding intensity [4] of the same molecule?
Its Binding intensity is “No change”.

And the IC50 [2]?
Its IC50 is over 6 µg/mL.

How did the Binding intensity [1] turn out when `C/C(=N\Nc1ccc([N+](=O)[O-])cc1)c1ccc(O)cc1` was run?
Its Binding intensity is “inactive”.

And the IC50 [2]?
Its IC50 is 4.1 µg/mL (≈ 15.1 µM).

For `O=C1NC(=O)C(C(c2ccnc3ccccc23)C2C(=O)NC(=O)NC2=O)C(=O)N1`, which Binding intensity [3] is on record?
The Binding intensity was “No change”.

What about the Binding intensity [7] of the same molecule?
The Binding intensity was 25%.

What about the Binding intensity [4] of the same molecule?
Its Binding intensity is “No change”.

And the IC50 [2]?
Its IC50 is over 10 µg/mL.

Which results are given for `C/C(=N/Nc1ccc([N+](=O)[O-])cc1[N+](=O)[O-])C1C(=O)NC(=O)NC1=O`?
Binding intensity [1]: inactive; Binding intensity [3]: No change; Binding intensity [4]: No change; IC50 [2]: 3.5 µg/mL (≈ 9.99 µM)

With `Nc1ccc(C(=NNc2ccc([N+](=O)[O-])cc2[N+](=O)[O-])c2ccc(N)cc2)cc1` as the molecule, how does the Binding intensity [3] read?
Its Binding intensity is “No change”.

And the Binding intensity [7]?
The Binding intensity was 25%.

What about the Binding intensity [4] of the same molecule?
The Binding intensity was “No change”.

What about the IC50 [2] of the same molecule?
Its IC50 is 5 µg/mL (≈ 12.7 µM).

`O=C(O)CCCCC/N=C/C1C(=O)NC(=O)NC1=O` was tested. Which Binding intensity [1] did it give?
Its Binding intensity is “inactive”.

What about the Binding intensity [3] of the same molecule?
Its Binding intensity is “No change”.

And the Binding intensity [4]?
Its Binding intensity is “No change”.

And the IC50 [2]?
Its IC50 is over 10 µg/mL.

For `CN1C(=O)C(/C=N\Nc2ccc([N+](=O)[O-])cc2[N+](=O)[O-])C(=O)N(C)C1=O`, which IC50 [2] is on record?
The IC50 was over 8 µg/mL.

How did the IC50 [2] turn out when `CN1C(=O)C(C(c2ccnc3ccccc23)C2C(=O)N(C)C(=O)N(C)C2=O)C(=O)N(C)C1=O` was run?
The IC50 was over 10 µg/mL.

Which results are given for `O=C(O)CC/N=C/C1C(=O)NC(=O)NC1=O`?
Binding intensity [1]: inactive; Binding intensity [3]: No change; Binding intensity [4]: No change; IC50 [2]: > 12 µg/mL

For `O=[N+]([O-])c1ccc(NN=C(c2ccc(OP(=O)(O)O)cc2)c2ccc(OP(=O)(O)O)cc2)c([N+](=O)[O-])c1`, which Binding intensity [1] is on record?
The Binding intensity was “inactive”.

And the Binding intensity [3]?
The Binding intensity was “No change”.

And the Binding intensity [4]?
Its Binding intensity is “No change”.

And the IC50 [2]?
Its IC50 is over 10 µg/mL.

`C/C(=N/Nc1ccc([N+](=O)[O-])cc1[N+](=O)[O-])C1C(=O)N(C)C(=O)N(C)C1=O` was tested. Which Binding intensity [4] did it give?
Its Binding intensity is “No change”.

What about the IC50 [2] of the same molecule?
Its IC50 is 10 µg/mL (≈ 26.4 µM).
